Residues, ends and D or L forms follow the SMILES beside them.
Key:
Scrib PDZ-2 domain = molecular target: T1, Scrib PDZ-2 domain (Homo sapiens, UniProt Q14160); experiment: In-solution fluorescence polarization binding of peptides to Scrib PDZ2; details: Kd value of 100 µM applied as binding cutoff, NB without definition, read-out: Kd (µM) PDZ2
T1 construct: ROC curves of DomPep prediction for the three Scrib PDZ-1/2/3 domains
T1 sequence (Q14160 862-950 limits assumed): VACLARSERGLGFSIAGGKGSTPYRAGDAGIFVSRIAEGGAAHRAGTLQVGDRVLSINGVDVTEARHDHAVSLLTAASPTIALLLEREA

Scrib PDZ-3 domain = molecular target: T2, Scrib PDZ-3 domain (Homo sapiens, UniProt Q14160); experiment: In-solution fluorescence polarization binding of peptides to Scrib PDZ3; details: Kd value of 100 µM applied as binding cutoff, NB without definition
T2 construct: ROC curves of DomPep prediction for the three Scrib PDZ-1/2/3 domains
T2 sequence (Q14160 1004-1093 limits assumed): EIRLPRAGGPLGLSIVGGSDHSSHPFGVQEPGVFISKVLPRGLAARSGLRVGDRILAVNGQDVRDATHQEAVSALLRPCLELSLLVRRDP
From the text: Because DomPep compared favorably to MDSM in identifying ligands for a PDZ domain included in the training set and to SPSSM in identifying binding peptides for an untrained PDZ domain, we next tested it whether it could reliably PPIs mediated by a PDZ domain on the genome scale. To this end, we employed three DomPep models to predict interactions between the Scrib PDZ domains and human proteins from the Swiss-Prot protein database. The three prediction models, which were generated for the mouse Scrib PDZ-1, PDZ-2 and PDZ-3 domains, were trained with 6, 5 and 30 positive peptide, respectively (Table S1). Searching the protein database with these models yielded a list of potential PDZ ligands. […] This experiment identified 14, 14, and 38 positives for the PDZ-1, -2, and -3 domains, respectively (Table 1). […] Importantly, we identified four peptides that were not included in the training set as physiological binders to the Scrib PDZ domains. The corresponding proteins, namely APC, LPP, VANGL2 and ZO2, were previously reported to interact with Scrib in vivo via its PDZ domains, [36], [37], [38], [39].
Figure 4 Application of DomPep to the prediction of PDZ-binding ligands. ROC curves of DomPep prediction for the three Scrib PDZ-1/2/3 domains using 56 peptides selected from the human protein database as the test set. The respective affinities of the three domains for the 56 peptides were measured by fluorescence polarization (Table 1).

Scrib PDZ-1 domain = molecular target: T3, Scrib PDZ-1 domain (Homo sapiens, UniProt Q14160); experiment: In-solution fluorescence polarization binding of peptides to Scrib PDZ1; details: Kd value of 100 µM applied as binding cutoff, NB without definition, read-out: Kd (µM) PDZ1
T3 construct: ROC curves of DomPep prediction for the three Scrib PDZ-1/2/3 domains
T3 sequence (Q14160 728-815 limits assumed): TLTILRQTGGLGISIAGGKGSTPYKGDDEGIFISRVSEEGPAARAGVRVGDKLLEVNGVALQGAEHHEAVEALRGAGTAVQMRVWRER

Row | SMILES | Kd (Scrib PDZ-2 domain) [µM] | Kd (Scrib PDZ-3 domain) [µM] | Kd (Scrib PDZ-1 domain) [µM]
1 | CC(C)[C@H](NC(=O)[C@H](CO)NC(=O)[C@H](CCCCN)NC(=O)[C@H](CCCCN)NC(=O)[C@H](CO)NC(=O)[C@H](CCCCN)NC(=O)[C@H](CCCCN)NC(=O)[C@H](CCCCN)NC(=O)[C@H](CCC(=O)O)NC(=O)[C@H](C)N)C(=O)O [PSMA8] (H-AEKKKSKKSV-OH) | > 100 | 177 | > 100
2 | CC(C)C[C@H](NC(=O)[C@H](CCC(=O)O)NC(=O)[C@H](CCCNC(=N)N)NC(=O)[C@H](Cc1c[nH]c2ccccc12)NC(=O)[C@@H]1CCCN1C(=O)[C@@H]1CCCN1C(=O)[C@H](CC(=O)O)NC(=O)CNC(=O)[C@H](CCCNC(=N)N)NC(=O)[C@@H]1CCCN1)C(=O)O [C19orf57] (H-PRGDPPWREL-OH; N-terminus and C-terminus assumed) | > 100 | > 100 | > 100
3 | CSCC[C@H](NC(=O)[C@H](CC(C)C)NC(=O)[C@@H](NC(=O)[C@H](CS)NC(=O)[C@H](CCCCN)NC(=O)CNC(=O)[C@H](CCCCN)NC(=O)[C@@H](NC(=O)[C@H](CCCNC(=N)N)NC(=O)[C@@H](N)CC(=O)O)C(C)C)[C@@H](C)O)C(=O)O [DIRAS1] (H-DRVKGKCTLM-OH; N-terminus and C-terminus assumed) | > 100 | > 100 | > 100
4 | CC[C@H](C)[C@H](NC(=O)[C@H](C)NC(=O)[C@H](CO)NC(=O)[C@H](CC(C)C)NC(=O)[C@H](CC(C)C)NC(=O)[C@@H](N)CCC(=O)O)C(=O)N[C@@H](CCC(=O)O)C(=O)N[C@@H](CCCCN)C(=O)N[C@@H](CC(C)C)C(=O)N[C@@H](CC(C)C)C(=O)O [UBXD1] (H-ELLSAIEKLL-OH; N-terminus and C-terminus assumed) | > 100 | > 100 | > 100
5 | CC[C@H](C)[C@H](NC(=O)[C@@H]1CCCN1C(=O)[C@@H](NC(=O)CNC(=O)[C@@H](NC(=O)[C@@H](NC(=O)[C@H](CC(N)=O)NC(=O)[C@@H](NC(=O)[C@H](CCC(N)=O)NC(=O)[C@@H](N)CC(=O)O)C(C)C)[C@@H](C)O)C(C)C)[C@@H](C)CC)C(=O)O [EPHA2] (H-DQVNTVGIPI-OH; N-terminus and C-terminus assumed) | > 100 | > 100 | > 100
6 | CC(C)C[C@H](NC(=O)[C@H](CC(C)C)NC(=O)[C@@H](NC(=O)CNC(=O)[C@H](Cc1ccc(O)cc1)NC(=O)[C@H](CC(C)C)NC(=O)[C@H](CCC(N)=O)NC(=O)[C@H](C)NC(=O)[C@@H](N)CCCCN)[C@@H](C)O)C(=O)N[C@@H](CC(N)=O)C(=O)O [BEGAIN] (H-KAQLYGTLLN-OH; N-terminus and C-terminus assumed) | > 100 | > 100 | > 100
7 | CC(C)[C@H](NC(=O)[C@H](CO)NC(=O)[C@@H](NC(=O)[C@@H](NC(=O)CNC(=O)[C@H](CCC(=O)O)NC(=O)[C@H](C)NC(=O)[C@H](CCCNC(=N)N)NC(=O)[C@H](CCC(=O)O)NC(=O)[C@@H](N)CS)[C@@H](C)O)C(C)C)C(=O)O [MUSK] (H-CERAEGTVSV-OH) | > 100 | 143 | > 100
8 | CC(C)C[C@H](NC(=O)[C@H](CS)NC(=O)[C@H](CC(=O)O)NC(=O)[C@@H](NC(=O)[C@H](CC(N)=O)NC(=O)[C@H](CCCNC(=N)N)NC(=O)[C@H](CC(C)C)NC(=O)CNC(=O)CNC(=O)[C@@H](N)CC(=O)O)C(C)C)C(=O)O [TBK1] (H-DGGLRNVDCL-OH) | > 100 | 67.8 | 77
9 | CC[C@H](C)[C@H](NC(=O)[C@@H]1CCCN1C(=O)[C@@H]1CCCN1C(=O)[C@@H](NC(=O)[C@H](CO)NC(=O)[C@H](Cc1ccc(O)cc1)NC(=O)[C@H](CC(C)C)NC(=O)[C@@H](NC(=O)[C@@H](NC(=O)[C@@H](N)CO)C(C)C)C(C)C)[C@@H](C)O)C(=O)O [FLT1] (H-SVVLYSTPPI-OH; N-terminus and C-terminus assumed) | > 100 | > 100 | > 100
10 | CC(C)C[C@H](NC(=O)[C@@H](NC(=O)[C@@H](NC(=O)[C@H](CO)NC(=O)[C@@H]1CCCN1C(=O)[C@H](CC(C)C)NC(=O)[C@H](CCCCN)NC(=O)[C@H](CCCNC(=N)N)NC(=O)[C@@H](NC(=O)[C@@H](N)CCCNC(=N)N)C(C)C)[C@@H](C)O)[C@@H](C)O)C(=O)O [RPS6KA1] (H-RVRKLPSTTL-OH) | > 100 | – | > 100
11 | CC(C)C[C@H](NC(=O)[C@H](CC(N)=O)NC(=O)[C@H](CCC(=O)O)NC(=O)CNC(=O)[C@@H]1CCCN1C(=O)[C@H](CCC(N)=O)NC(=O)[C@H](Cc1ccc(O)cc1)NC(=O)[C@H](CCC(N)=O)NC(=O)[C@@H]1CCCN1C(=O)[C@@H](N)CCC(=O)O)C(=O)O [SRC] (H-EPQYQPGENL-OH) | > 100 | – | > 100
12 | CC(C)C[C@H](NC(=O)[C@H](CCCNC(=N)N)NC(=O)[C@@H]1CCCN1C(=O)[C@H](Cc1c[nH]cn1)NC(=O)[C@H](CO)NC(=O)[C@@H]1CCCN1)C(=O)N[C@@H](CCC(N)=O)C(=O)N[C@H](C(=O)N[C@@H](Cc1c[nH]cn1)C(=O)N[C@H](C(=O)O)C(C)C)[C@@H](C)O [KIRREL2] (H-PSHPRLQTHV-OH) | > 100 | – | > 100
13 | CSCC[C@H](NC(=O)[C@H](Cc1ccccc1)NC(=O)[C@H](C)NC(=O)[C@@H](N)Cc1c[nH]c2ccccc12)C(=O)N[C@@H](CCCNC(=N)N)C(=O)N[C@@H](Cc1ccc(O)cc1)C(=O)N[C@@H](CCCNC(=N)N)C(=O)N[C@@H](CCC(N)=O)C(=O)N[C@@H](CCC(N)=O)C(=O)N[C@@H](CC(C)C)C(=O)O [SYNJ2BP] (H-WAFMRYRQQL-OH) | > 100 | – | > 100
14 | CSCC[C@H](NC(=O)[C@H](CCCNC(=N)N)NC(=O)[C@H](CCCCN)NC(=O)[C@H](CCC(=O)O)NC(=O)[C@H](C)NC(=O)[C@@H](N)Cc1ccc(O)cc1)C(=O)N[C@@H](CC(C)C)C(=O)N[C@H](C(=O)N[C@@H](CCC(=O)O)C(=O)N[C@H](C(=O)O)C(C)C)[C@@H](C)O [KCNA6] (H-YAEKRMLTEV-OH) | > 100 | – | > 100

Continued, values first:

Row | Kd (Scrib PDZ-2 domain) [µM] | Kd (Scrib PDZ-3 domain) [µM] | Kd (Scrib PDZ-1 domain) [µM] | SMILES
15 | > 100 | > 100 | 129 | CC(C)[C@H](NC(=O)[C@@H]1CCCN1C(=O)[C@@H](NC(=O)[C@@H]1CCCN1C(=O)CNC(=O)[C@H](CC(N)=O)NC(=O)[C@H](CCCCN)NC(=O)[C@H](CO)NC(=O)[C@H](CCC(N)=O)NC(=O)[C@@H](N)[C@@H](C)O)C(C)C)C(=O)O [EPHA3] (H-TQSKNGPVPV-OH)
16 | > 100 | > 100 | > 100 | CC(C)C[C@H](NC(=O)[C@H](CCCCN)NC(=O)[C@H](CO)NC(=O)[C@H](CCC(=O)O)NC(=O)[C@H](CO)NC(=O)[C@@H](NC(=O)[C@H](CCC(N)=O)NC(=O)[C@@H]1CCCN1C(=O)[C@H](CCCCN)NC(=O)[C@@H](N)C(C)C)C(C)C)C(=O)O [PTE1] (H-VKPQVSESKL-OH; N-terminus and C-terminus assumed)
17 | > 100 | 116 | > 100 | CC[C@H](C)[C@H](NC(=O)[C@@H](N)CC(N)=O)C(=O)NCC(=O)N[C@@H](CO)C(=O)N[C@@H](CCC(N)=O)C(=O)NCC(=O)N[C@@H](CO)C(=O)N[C@H](C(=O)N[C@@H](CC(=O)O)C(=O)N[C@@H](Cc1ccc(O)cc1)C(=O)O)[C@@H](C)O [TRIM21] (H-NIGSQGSTDY-OH)
18 | 34.3 | – | 23.6 | CC(C)C[C@H](NC(=O)[C@@H]1CCCN1C(=O)[C@@H](NC(=O)[C@H](CCC(=O)O)NC(=O)[C@H](CCCCN)NC(=O)[C@H](CCCCN)NC(=O)[C@H](Cc1ccc(O)cc1)NC(=O)[C@H](CC(N)=O)NC(=O)[C@H](Cc1ccccc1)NC(=O)[C@@H](N)CO)[C@@H](C)O)C(=O)O [ARD50] (H-SFNYKKETPL-OH)
19 | 7.7 | – | 27.5 | CSCC[C@H](N)C(=O)N[C@@H](CCC(=O)O)C(=O)N[C@@H](CCCNC(=N)N)C(=O)N[C@@H](CC(C)C)C(=O)N[C@@H](CCCNC(=N)N)C(=O)N[C@H](C(=O)N[C@@H](CCC(=O)O)C(=O)N[C@H](C(=O)N[C@@H](CC(=O)O)C(=O)N[C@H](C(=O)O)C(C)C)[C@@H](C)O)C(C)C [ARHGEF16] (H-MERLRVETDV-OH)
20 | 16.8 | – | 5.3 | CC(C)C[C@H](NC(=O)[C@H](CC(N)=O)NC(=O)[C@@H](NC(=O)[C@H](CCC(=O)O)NC(=O)[C@H](CC(=O)O)NC(=O)[C@H](Cc1c[nH]c2ccccc12)NC(=O)[C@H](C)NC(=O)[C@@H]1CCCN1C(=O)[C@H](CC(=O)O)NC(=O)[C@@H](N)CC(N)=O)[C@@H](C)O)C(=O)O [b-PIX] (H-NDPAWDETNL-OH)
21 | 24.7 | – | > 100 | CC(C)C[C@H](NC(=O)[C@@H](N)C(C)C)C(=O)N[C@@H](Cc1ccc(O)cc1)C(=O)N1CCC[C@H]1C(=O)N[C@@H](CCCNC(=N)N)C(=O)N[C@@H](CCC(=O)O)C(=O)NCC(=O)N[C@H](C(=O)N[C@@H](CCC(=O)O)C(=O)N[C@H](C(=O)O)C(C)C)[C@@H](C)O [FOXl1] (H-VLYPREGTEV-OH)

From paper PMC3189207, “DomPep—A General Method for Predicting Modular Domain-Mediated Protein-Protein Interactions” (PLoS ONE, 2011)
